Legend:
[1] = 58 μg/kg intravenously, dogs; cited from earlier work
[2] = topical administration of up to 20%, human eye; cited from earlier work
[3] = tested on: HUVECs; assay: Matrigel endothelial cell capillary-tube formation assay; type: cell-based, human
Procedure: HUVECs were purchased from Cedarlane Laboratories (Burlington, Canada) and maintained in Endothelial Cell Basal Medium-2 (EBM-2) supplemented with EGM-2 growth factor mixture (Clonetics) and 2% Foetal bovine serum. The cells were cultured at 37° C. under a humidified 95%/5% (v/v) mixture of air and CO2.
Matrigel endothelial cell tube formation assays were performed using BD Matrigel™ (Becton, Dickinson). BD Matrigel™ was thawed at 4° C., and 150 μL were quickly added to each well of a 48-well plate and allowed to solidify for 60 min at 37° C. HUVECs (7×10^4 cells/mL) In EC basal medium-2 (EBM-2) were seeded 250 μL per well onto the surface of the solid BD Matrigel™ in the presence of the compounds to be tested. The cells were incubated for 22 h at […] in a 5% CO2 incubator. Tube formation was monitored by using a Leitz Labovert (Leitz, Wetzlar, Germany) inverted microscope. Two randomly selected two microscopic fields were photographed with a digital camera (Nikon, COOLPICKS 995). The total length of tube structures in each photograph was measured using ImageJ™ free software (http://rsb.info.nih.gov/ij/) and was normalized to that of control with no test compound. Each reported value represents the average of total six photographs from three independent experiments.

[4] = tested on: HUVECs; assay: Invasion of HUVECs through Matrigel-coated filter (Matrigel Invasion Chambers); type: cell-based, human
Procedure: HUVECs were purchased from Cedarlane Laboratories (Burlington, Canada) and maintained in Endothelial Cell Basal Medium-2 (EBM-2) supplemented with EGM-2 growth factor mixture (Clonetics) and 2% Foetal bovine serum. The cells were cultured at 37° C. under a humidified 95%/5% (v/v) mixture of air and CO2. Invasion of endothelial cells was measured using BD BioCoatTM Growth Factor Reduced MatrigelTM Invasion Chambers (Beckton-Dickinson; […]). EBM-2 medium (500 μL each) was placed into the lower wells. HUVECs (2.5×10^4) in EBM-2 serum-free medium (500 μL) were seeded into each of the upper wells and incubated in the presence of a test compound. HUVECs were allowed to migrate for 36 h at 37° C. in an atmosphere of 95% air/5% CO2. HUVECs that remained on the upper surface of the filter were removed using a cotton swab. HUVECs that had migrated to the lower surface of the filters were fixed with methanol, stained with 0.1% crystal violet/20% (v/v) methanol and examined using a Leitz Labovert (Leitz, Wetzlar, Germany) inverted microscope after mounting on a slide. Three randomly selected microscopic fields were digitally captured using a Nikon […] 995 digital camera and the number of HUVECs in each photograph were directly counted. Each reported value represents the average and standard deviation of a total […] from two independent experiments.

[5] = Optical stability (racemization) in eye drop formulations, 10 days at 55° C., chiral HPLC; type: physicochemical; conditions: for % optical purity: 1.7 mg/mL, pH 6.0, starting material 99.90%
Procedure: The optical isomers of (S)-isoproterenol bitartrate and (S)-isoproterenol dipivalate hydrochloride were separated by HPLC using Shiseido chiral CD-Ph column (250×4.6 mm; 5 μm; isocratic 60:40 of 0.5 M sodium perchlorate/water and acetonitrile; flow rate, 1.0 mL/min). The elution profile was monitored by the absorption at 223 nm for isoproterenol bitartrate and 264 nm for isoproterenol dipivalate hydrochloride. The optical impurities were quantitated by the absorbance at 223 nm for isoproterenol bitartrate and 264 nm for isoproterenol dipivalate hydrochloride and by using a curve fitting software TABLECurve2D (Systat). The impurities of (R)-isoproterenol bitartrate and (R)-isoproterenol dipivalate hydrochloride were estimated as […], respectively. Thus, the racemization induced during synthesis and purification was minimal, if it occurred.
Table 2 describes the optical purities of (S)-isoproterenol and (S)-isoproterenol dipivalate after incubation in various eye drop formulations for 10 days at 55° C. and compared with those before incubation. The incubation for 10 days at 55° C. corresponds to the incubation for 167 days at 22° C.

[6] = Body weight of rats with eye drop treatment; type: in vivo, Sprague-Dawley rats
Description: Prevention of diabetic retinopathy by (S)-isoproterenol […] drop was studied using a rat model. […] Animal weights were monitored every week.

[7] = Groups I vs II and III vs IV
Procedure: Two-month-old male Sprague-Dawley rats were purchased from Charles River, Canada. They were housed in the Biotechnology Research Institute (BRI)-animal facility. […] Diabetes was induced in male Sprague-Dawley rats weighing approximately 200 to 250 g by a single intraperitoneal injection of the beta-cell toxin, Streptozotocin (STZ) (Sigma, St. Louis, Mich.), at a dose of 60 mg/kg body weight in 0.1M citrate buffer pH 4.5. Non-diabetic control rats received citrate buffer only.
One week following induction of diabetes, glucose levels were determined in the blood sampled from the tail vein using a blood glucose monitoring system (Ascensia ELITE Blood Glucose Meter, Bayer Inc, Toronto, ON, Canada). Since the limit of detection of the blood glucose meter was 33 mM, any value above that has been assigned a maximum value of 35 mM. Only animals with blood glucose levels higher than 15 mM were retained in the study.
Eye drops or vehicle were administered twice a day, seven days a week, on the cornea of different groups of rats, with a minimum interval of 7 h between the two treatments. To promote weight gain and limit hyperglycemia, diabetic rats were injected sub-cutaneously with 2 IU ultralente insulin (Humulin, Eli Lilly, Toronto, ON, Canada) three times a week. Animal weights were monitored every week.

[8] = humans, cited from earlier work
[9] = 17.6% eye drop, rabbit; cited from earlier work
[10] = large intravenous dose; cited from earlier work
[11] = mouse, in vivo, iv; cited from earlier work

CC(C)NCC(O)c1ccc(OC(=O)C(C)(C)C)c(OC(=O)C(C)(C)C)c1 (racemic) [(R,S)-isoproterenol dipivalate]
cardiovascular responses [1]: the same responses as those of (R,S)-isoproterenol

CC(C)NC[C@@H](O)c1ccc(O)c(O)c1.Cl [(S)-isoproterenol hydrochloride]
lowering of intra-ocular pressure [2]: did not show any indication to lower intra-ocular pressure

CC(C)NC[C@@H](O)c1ccc(O)c(O)c1 [(S)-isoproterenol]
anti-angiogenic activity at 95% w/w optical purity ([3]; 95% w/w optically pure, total isoproterenol 20 μM, FIG. 3): in the transition from non-antianglogenic to anti-angiogenic | potency (inhibition of capillary tube formation) ([3]; angiogenic assay condition used in FIG. 1, 1-50 μM, 22 h): around 10 μM | Activity (anti-angiogenicity) ([3]; measured at 20 μM, HUVECs on Matrigel, 22 h): anti-angiogenic activity | optical purity of (S)-isoproterenol at which anti-angiogenic activity was observed ([3]; various ratios of (S)- and (R)-isoproterenol, total 20 μM, FIG. 3): at least 97 % w/w | reduction of the invasion of HUVECs in Matrigel ([4]; 20 μM): 60% | Activity (anti-invasion) ([4]; measured at 20 μM, HUVECs): Anti-invasive | conversion to the (R)-isoform ([5]; 10 days at 55° C.): 2.55% | % optical purity ([5]; 10 days at 55° C., NaCl 8 mg/mL, Benzalkonium chloride 0.04 mg/mL, Tween 80 2.5 mg/mL): 96.68% | % optical purity ([5]; 10 days at 55° C., Povidone 2 mg/mL, Benzalkonium chloride 0.04 mg/mL, D-Mannitol 54.7 mg/mL): 97.90% | % optical purity ([5]; 10 days at 55° C., Povidone 2 mg/mL, D-Mannitol 54.7 mg/mL, Chlorobutanol 1 mg/mL, 2-hydroxypropyl cyclodextrin 10.1 mg/mL): 97.56% | % optical purity ([5]; 10 days at 55° C., Povidone 2 mg/mL, NaCl 8 mg/mL, Benzalkonium chloride 0.04 mg/mL, 2-hydroxypropyl cyclodextrin 10.1 mg/mL): 97.26% | average optical purity after incubating 10 days at 55° C. ([5]; average over the eye drop formulations): 97.35±0.52% | optical purity after 655 days of storage at room temperature ([5]; extrapolated, from 99.90%): 90% | effect on weight gain/loss ([6]; diabetic rats, Group IV vs Group III): no effect | effect on weight gain/loss ([6]; non-diabetic rats, Group II vs Group I): no effect | effect on the blood glucose level and diabetes [7]: does not affect | side effects of topically applied 10% solution ([8]; 10%, topical): brief mild conjunctival hyperemia and irritation | side effects of 20% eye drop ([8]; 20% eye drop): marked conjunctival hyperemia and mild miosis that persisted for several hours | systemic effects (heart rate, blood pressure, hematologic or serum chemistry values, necropsy) [9]: no systemic effects | effects on blood pressure and pulse rate [10]: only slight and transient effects | LD50 [11]: 113 ± 5 mg/kg

From patent publication US9351947B2, “Use of catecholamines and related compounds as anti-angiogenic agents” (National Research Council of Canada, priority 2007, dated 2016)
